Patent US12539284B2, “Aminoxy acid-based anti-cancer stem cell compounds and methods thereof” (Westlake University, priority 2019, dated 2026)
Where two headings read alike, the source gives them in different places. Blank lines part the entries; values can stand above or below the molecule they belong to.

Tests used:
HEY A8 CSCs (HEY A8 SP) = assay: Toxicity / cell viability (CellTiter-Glo) on HEY A8 spheres (CSCs); format: cell-based, human; details: for selectivity towards ovarian CSCs over ovarian cancer cells and normal cells: from IC50 values, FIG. 4 and Table 1
Procedure: Aminoxy acids were synthesized by the standard peptide coupling procedures. The CSCs are obtained by spheroids culturing under suspension condition. It is confirmed that these spheres indeed contain significant higher population of cells with CD133 antigenic phenotype, which has been reported can represent ovarian CSCs (FIG. 2). After treatment with compounds for 48 h, the cell viability of CSCs was measured by using CELLTITER-GLO® luminescent reagent. Compound sff-3-85 (“Example 2”) were used at the dose of 10 μM, all the other compounds were used at the concentration of 5 μM. All experiments were performed three times and data is presented as mean±SD.
(§1) Cell Cultures Human ovarian carcinoma cell lines HEY A8 and SKOV3 were gifts from Professor Alice Wong's group (The University of Hong Kong). Cells were grown in Dulbecco's Modified Eagle (DMEM) medium supplemented with 10% FBS and 1% penicillin/streptomycin at 37° C. in a humidified atmosphere containing […] CO2. Isolation and culture of spheres were performed in serum-free stem-cell-selective condition as described in literature Ip etl. Oncogene 2014, 5, 9133-9149. Briefly, 1-2 weeks after plating, non-adherent spherical clusters of cells could be observed and were separated from single cells by low speed centrifugation. After 8th to 10th passages, the non-adherent spherical clusters of cells appeared as distinct spheres. Using this selection condition, HEY A8 spheres (HEY A8 SP) or SKOV3 spheres (SKOV3 SP) could be enzymatically dissociated and reformed into spheres within 3 days under stem-cell-selective condition. To allow differentiation, dissociated sphere cells were plated on tissue culture plates in medium (MCDB 105:M199=1:1) supplemented with 10% FBS and 1% PS.
(§2) HEY A8 SP cells (5×10^4) were plated in triplicate in 10 mL serum-free MCDB105 medium in 100-mm Petri dish for 7 days to form spheres. Compound at the final concentration of 5 μM was added. The cells were further incubated at 37° C. for 48 h. After that cells were collected by centrifugation and the medium was removed. Then 100 μL CellTiter-Glo® Luminescent Cell Viability reagent was added into each tube, which was incubated for 10 min with shaking. After that, the reagent was transferred into 96-well plates and cell viability was measured using a microplate reader (SpectraMax 340PC 384, Molecular Devices).
as §2, with “A8 SP cells or SKOV3” for “A8”, “Then drugs” for “Compound”, “different” for “the final”, “were” for “of 5 μM was”, “μL of” for “μL”

Huh 7 CD133- cells = assay: Cell viability (CellTiter-Glo) of sorted Huh 7 CD133- cells; format: cell-based; details: 48 h, different doses
Procedure: (§3) Huh-7 cells were stained with PE-conjugated CD133 antibody (HCC cancer stem cell marker) according to the manufacturer's instructions. Then CD133^+ cells (Huh 7 cancer stem cells) and CD133− cells were sorted by flow cytometry and seeded into 96-well plate with fresh DMEM medium. After 24 h, medium was changed to fresh medium with compound sff-2-112 (“Example 1”) or sff-2-124 (“Example 3”) at different doses. After 48 h, cell viability was analyzed by CellTiter-Glo luminescent agent.

HEK293 = assay: Toxicity against normal cell line HEK293; format: cell-based
From the text: (§4) Fourteen compounds including aminoxy acid monomers and dipeptides have been identified to show toxicity against HEY A8 CSCs. The half maximal inhibitory concentration (IC50) values of compounds sff-2-112, sff-2-124, sff-2-132 and sff-2-100 towards adherent cancer HEY A8, SKOV3 cells and CSCs were further determined. […] Especially compound sff-2-132, its selectivity to CSCs is up to 60-fold higher than that to cancer cells. Their toxicity against other normal cell lines NIH3T3, HEK293 and MDCK were also tested and the IC50 values were summarized in Table 1.

HEY A8 cancer cells = assay: Cell viability (CellTiter-Glo) on adherent HEY A8 cancer cells; format: cell-based, human; details: read-out: IC50 Cancer Cell HeyA8
Procedure: as §1
(§5) HEY A8 or SKOV3 cancer Cells were plated in triplicate in 0.1 mL full medium in 96-well plates for 24 h. After that, the medium was changed to the fresh prepared medium with various concentrations of compounds. Cells were incubated for another 48 h. Then the cell viability was measured by CellTiter-Glo® Luminescent Cell Viability reagent according to the manufacture's instruction. The luminescence at 550 nm was measured using a microplate reader (SpectraMax 340PC 384, Molecular Devices).

SKOV3 cancer cells = assay: Cell viability (CellTiter-Glo) on adherent SKOV3 cancer cells; format: cell-based, human; details: 48 h incubation
Procedure: as §1, §5

[1] = system: Huh 7 cancer stem cells (CD133+); assay: Cell viability (CellTiter-Glo) of sorted Huh 7 CD133+ cells; format: cell-based; details: 48 h
Procedure: as §3

NIH3T3 = assay: Toxicity against normal cell line NIH3T3; format: cell-based
From the text: as §4

MDCK = assay: Toxicity against normal cell line MDCK; format: cell-based
From the text: as §4

HEY A8 CSCs [2] = assay: Apoptosis, Annexin V / PI flow cytometry, CSCs; format: cell-based, human; details: 5 μM, 2 days; DMSO 4.92%
Procedure: A suspension of HEY A8 cells at the concentration of 5×10^4 cells/mL in DMEM medium were seeded into 60-mm cell culture dishes. Cells were incubated at 37° C. in a humidified atmosphere containing 5% CO2 for 24 h followed by the addition of 4 mL fresh medium or medium containing compound sff-2-112 (“Example 1”) or sff-2-132 (“Example 4”) at different concentration. Medium containing 0.1% DMSO was used as negative control. After 2 days, the medium was aspirated and cells were washed with cold PBS twice, and then stained with PI and Annexin V according to the manufacture's instruction (Dead Cell Apoptosis Kit with Annexin V Alexa Fluor™ 488 & Propidium Iodide, Thermo Fisher). Cells were analyzed by flow cytometry (BD FACS CantoII Analyzer).

HEY A8 cells = assay: Population of CD133+ cells by flow cytometry (PE-conjugated CD133 antibody); format: cell-based, human; details: Paclitaxel 100 nM, 3 days; control 21.8%
Procedure: CD133 has been reported to be a marker of ovarian CSCs. After cells treated with synthetic molecule, the population of CD133^+ cells were measured. HEY A8 cells were treated with taxol (100 nM), compound sff-2-112 (“Example 1”) or sff-2-132 (“Example 4”) at the concentration of 15 μM. Medium containing 0.1% DMSO was used as a negative control.
A suspension of HEY A8 cells at the concentration of 2.5×10^4 cells/mL in DMEM medium were seeded into 60-mm cell culture dishes. Cells were incubated at 37° C. in a humidified atmosphere containing 5% CO2 for 24 h, followed by the addition of 4 mL fresh medium or medium containing Paclitaxel (100 nM), sff-2-112 (15 μM) or compound sff-2-132 (15 μM). Medium containing 0.1% DMSO was used as a negative control. After 3 days, the medium was removed and cells were washed with cold PBS twice, and then stained with PE-conjugated CD133 antibody according to the manufacture's instruction. The fluorescence was analyzed by flow cytometry.

HEY A8 CSCs [3] = assay: In vivo tumor seeding ability of pretreated HEY A8 CSCs; details: CSCs pretreated 2 days in vitro, 10^6 cells injected subcutaneously in mice, 25 days
Procedure: In vivo tumor seeding ability of cells after treatment with compound sff-2-112 (“Example 1”) or sff-2-132 (“Example 4”) was evaluated. Taxol was used as a negative control. For this experiment, HEY A8 CSCs were pretreated with sff-2-112 (“Example 1”), sff-2-132 (“Example 4”) or Taxol for 2 days in suspension medium, respectively. Then cells were allowed to proliferate in full medium in the absence of drugs for 10 days. After that, 10^6 cells were injected into mice subcutaneously. Tumor size was measured for 25 days after injection.

Compound: CC(C)(C)OC[C@@H](ONC(=O)c1cc(C(F)(F)F)cc(C(F)(F)F)c1)C(=O)Nc1ccccc1 [sff-3-100]
cell viability of HEY A8 CSCs (toxicity) (HEY A8 CSCs (HEY A8 SP); compound 5 μM, 48 h): significantly decreased the cell viability

Compound: CC(C)COC(=O)[C@@H](COCc1ccccc1)ONC(=O)c1cc(C(F)(F)F)cc(C(F)(F)F)c1 [sff-3-87]
cell viability of HEY A8 CSCs (toxicity) (HEY A8 CSCs (HEY A8 SP); compound 5 μM, 48 h): significantly decreased the cell viability

Compound: CC(C)C[C@@H](ONC(=O)c1cc(C(F)(F)F)cc(C(F)(F)F)c1)C(=O)Nc1ccccc1 [sff-2-124]
death of Huh 7 CD133- cells (Huh 7 CD133- cells): induce the death | IC50 (HEK293): 67.2 ± 4.2 µM | IC50 (HEY A8 cancer cells; 48 h incubation): 20.8 ± 0.9 µM | IC50 (SKOV3 cancer cells): 18.6 ± 5.1 µM | toxicity to huh7 CD133+ population compared with CD133- cells [1]: higher | death of Huh 7 CD133+ cells ([1]; different doses): induce the death | IC50 (NIH3T3): 15.1 ± 0.5 µM | IC50 (MDCK): 13.2 ± 0.9 µM | cell viability of HEY A8 CSCs (toxicity) (HEY A8 CSCs (HEY A8 SP); compound 5 μM, 48 h): significantly decreased the cell viability | selectivity towards ovarian CSCs over ovarian cancer cells and normal cells (HEY A8 CSCs (HEY A8 SP)): selectively induce the death of ovarian CSCs

Compound: CCC(C)[C@@H](ONC(=O)c1cc(C(F)(F)F)cc(C(F)(F)F)c1)C(=O)Nc1ccccc1 (stereo partly shown) [Amy-1-4]
cell viability of HEY A8 CSCs (toxicity) (HEY A8 CSCs (HEY A8 SP); compound 5 μM, 48 h): significantly decreased the cell viability

Compound: CC(OCc1ccccc1)[C@@H](ONC(=O)c1cc(C(F)(F)F)cc(C(F)(F)F)c1)C(=O)Nc1ccccc1 (stereo partly shown) [sff-3-98-2]
cell viability of HEY A8 CSCs (toxicity) (HEY A8 CSCs (HEY A8 SP); compound 5 μM, 48 h): significantly decreased the cell viability

IC50 (HEY A8 cancer cells; Homo sapiens, HEY A8, 48 h incubation): 22.4 ± 1 µM
Compound: O=C(NO[C@H](COCc1ccccc1)C(=O)NO[C@@H](Cc1ccccc1)C(=O)Nc1ccccc1)c1cc(C(F)(F)F)cc(C(F)(F)F)c1 [sff-2-100]
IC50 (HEK293; Homo sapiens, HEK293): 18.3 ± 0.6 µM | IC50 (NIH3T3; Mus musculus, NIH3T3): 2.8 ± 0.9 µM | IC50 (MDCK; Canis lupus familiaris, MDCK): 18 ± 0.7 µM | rank of toxicity among the 14 molecules on HEY A8 CSCs (HEY A8 CSCs (HEY A8 SP); 5 μM, 48 h): highest toxicity | IC50 (HEY A8 CSCs (HEY A8 SP); Homo sapiens, HEY A8 spheres, 48 h incubation, read-out: IC50 Cancer Stem Cell HeyA8 SP): 2.8 ± 0.9 µM | cell viability of HEY A8 CSCs (toxicity) (HEY A8 CSCs (HEY A8 SP); compound 5 μM, 48 h): significantly decreased the cell viability | selectivity towards ovarian CSCs over ovarian cancer cells and normal cells (HEY A8 CSCs (HEY A8 SP)): selectively induce the death of ovarian CSCs

Compound: O=C(NO[C@H](COCc1ccccc1)C(=O)Nc1ccc(F)cc1)c1cc(C(F)(F)F)cc(C(F)(F)F)c1 [sff-3-86]
Annexin V positive cells, CSCs (HEY A8 CSCs [2]): 30.4% | cell viability of HEY A8 CSCs (toxicity) (HEY A8 CSCs (HEY A8 SP); compound 5 μM, 48 h): significantly decreased the cell viability

Compound: O=C(NO[C@H](Cc1cc2ccccc2[nH]1)C(=O)Nc1ccccc1)c1cc(C(F)(F)F)cc(C(F)(F)F)c1 [Amy-1-8]
cell viability of HEY A8 CSCs (toxicity) (HEY A8 CSCs (HEY A8 SP); compound 5 μM, 48 h): significantly decreased the cell viability

Compound: CC(C)(C)Oc1ccc(C[C@@H](ONC(=O)c2cc(C(F)(F)F)cc(C(F)(F)F)c2)C(=O)Nc2ccccc2)cc1 [sff-3-101]
cell viability of HEY A8 CSCs (toxicity) (HEY A8 CSCs (HEY A8 SP); compound 5 μM, 48 h): significantly decreased the cell viability

Compound: CC(=O)O[C@H]1C(=O)[C@@]2(C)[C@H]([C@H](OC(=O)c3ccccc3)[C@]3(O)C[C@H](OC(=O)[C@H](O)[C@@H](NC(=O)c4ccccc4)c4ccccc4)C(C)=C1C3(C)C)[C@]1(OC(C)=O)CO[C@@H]1C[C@@H]2O [paclitaxel, reference compound]
population of CD133+ cells after treatment (HEY A8 cells): 31.6% | tumor-seeding ability / tumor size of pretreated cells (HEY A8 CSCs [3]): resistant

Compound: O=C(NO[C@H](COCc1ccccc1)C(=O)NOc1ccccc1)c1cc(C(F)(F)F)cc(C(F)(F)F)c1 [FPM-1-187]
cell viability of HEY A8 CSCs (toxicity) (HEY A8 CSCs (HEY A8 SP); compound 5 μM, 48 h): significantly decreased the cell viability

Compound: C[C@H](ONC(=O)c1cc(C(F)(F)F)cc(C(F)(F)F)c1)C(=O)Nc1ccccc1 [sff-3-85]
cell viability of HEY A8 CSCs (toxicity) (HEY A8 CSCs (HEY A8 SP); compound 10 μM, 48 h): significantly decreased the cell viability

Compound: O=C(NO[C@H](COCc1ccccc1)C(=O)Nc1ccccc1)c1ccc(C(F)(F)F)cc1 [sff-3-91]
cell viability of HEY A8 CSCs (toxicity) (HEY A8 CSCs (HEY A8 SP); compound 5 μM, 48 h): significantly decreased the cell viability
